Laboratory results taken from patent US6310095A, “Inhibitors of protein isoprenyl transferases” (University of Pittsburgh, priority 1998, dated 2001).
Where a name gives a salt, the structure may show the parent alone. Read-outs that look alike come from different tables or passages of the source. One block for each molecule: values may come before it.

Biological target: T1, protein farnesyltransferase (Rattus norvegicus, UniProt Q02293+Q04631)
T1 construct: Rat brain protein farnesyltransferase activity is measured; from tissue; host or cells: rat brain; purified according to Reiss et al., Cell 62:81-88 (1990), steps one through three
Test: in vitro inhibition of protein farnesyltransferase (scintillation proximity assay, biotin-K Ras B fragment)
Format: biochemical
Details: for inhibition at 1 µM / inhibition at 0.1 µM: read-out: % inhibition of farnesyltransferase; for inhibition at 10 µM: at 1 × 10^-5 M
Outline: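 Scintillation proximity read-out of farnesylation, using a biotinylated K Ras B fragment (0.1 mM final) in place of biotin-lamin. Enzyme purified from rat brain; results given as % inhibition.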

- inhibition at 1 µM (at 1 × 10^-6 M): 88%
SMILES: CSCC[C@H](NC(=O)c1ccc(CN(CC(C)C)C(CC2CCCCC2)CC2CCCCC2)cc1-c1ccccc1C)C(=O)O [Example 908]

- % inhibition of farnesyltransferase (at 1 × 10^-6 M): 91%
SMILES: CSCC[C@H](NC(=O)c1ccc(CN(C(C)C)C2(CC3CCCCC3)CC2)cc1-c1ccccc1C)C(=O)O [Example 326]

- % inhibition of farnesyltransferase (at 1 × 10^-6 M): 98%
SMILES: CSCC[C@H](NC(=O)c1ccc(CN(C2CC2)C2(CC3CCCCC3)CCC2)cc1-c1ccccc1C)C(=O)O [Example 330]

- % inhibition of farnesyltransferase (at 1 × 10^-6 M): 98%
SMILES: Cc1ccccc1-c1cc(CN(C2CC2)C2(CC3CCCCC3)CCCC2)ccc1C(=O)N[C@@H](CCS(C)(=O)=O)C(=O)O [Example 346]

- inhibition at 0.1 µM (at 1 × 10^-7 M): 82%
SMILES: CSCC[C@H](NC(=O)c1ccc(CN(CCC23CC4CC(CC(C4)C2)C3)c2ccccc2)cc1-c1ccccc1C)C(=O)O [Example 511]

- inhibition at 0.1 µM (at 1 × 10^-7 M): 85%
SMILES: CCCCN(CCCC)C(=O)CNCc1ccc(C(=O)N[C@@H](CCSC)C(=O)O)c(-c2ccccc2C)c1 [Example 912, N-[4-(N-(N,N-dibutylacetamido)aminomethyl)-2-(2-methylphenyl)benzoyl]methionine]

- inhibition at 0.1 µM (at 1 × 10^-7 M): 86%
SMILES: CSCC[C@H](NC(=O)c1ccc(CN(Cc2ccccc2)Cc2nccs2)cc1-c1ccccc1C)C(=O)O [Example 548, N-[4-N-benzyl-N-(thiazol-2-ylmethyl)aminomethyl-2-(2-methylphenyl)benzoyl]methionine]

- % inhibition of farnesyltransferase (at 1 × 10^-6 M): 87%
SMILES: CSCC[C@H](NC(=O)c1ccc(C=CCCCc2ccccc2)cc1-c1ccccc1C)C(=O)O [Example 480]

- inhibition at 1 µM (at 1 × 10^-6 M): 96%
SMILES: CSCC[C@H](NC(=O)c1ccc(CN(CCc2ccccc2)Cc2ccccc2)cc1-c1ccccc1C)C(=O)O [Example 513, N-[4-N-(2-phenylethyl)-N-benzylaminomethyl-2-(2-methylphenyl)benzoyl]methionine lithium salt]

- % inhibition of farnesyltransferase (at 1 × 10^-6 M): 85%
SMILES: CSCC[C@H](NC(=O)c1ccc(CS(=O)(=O)Cc2ccccc2)cc1-c1ccccc1C)C(=O)O [Example 555]

- inhibition at 1 µM (at 1 × 10^-6 M): 35%
SMILES: CSCC[C@H](NC(=O)c1ccc(CN(C(=O)OC(C)(C)C)C(CC2CCCCC2)CC2CCCCC2)cc1-c1ccccc1C)C(=O)O [Example 886, N-[4-N-t-Butyloxycarbonyl-N-(1,3-dicyclohexylpropan-2-yl)aminomethyl-2-(2-methylphenyl)-benzoyl]methionine lithium salt]

- % inhibition of farnesyltransferase (at 1 × 10^-8 M): 91%
SMILES: CSCC[C@H](NC(=O)c1ccc(CO[C@H](CSC(C)(C)C)CC2CCCCC2)cc1-c1ccccc1C)C(=O)O [Example 883]

- % inhibition of farnesyltransferase (at 1 × 10^-6 M): 62%
SMILES: CSCC[C@H](NC(=O)c1ccc(CN2CCN(C(=O)OC(C)(C)C)CC2)cc1-c1ccccc1C)C(=O)O [Example 866]

- % inhibition of farnesyltransferase (at 1 × 10^-6 M): 98%
SMILES: CSCC[C@H](NC(=O)c1ccc(CN(C2CC2)C2(CC3CCCCC3)CC2)cc1-c1ccccc1C)C(=O)O [Example 324]

- % inhibition of farnesyltransferase (at 1 × 10^-6 M): 62%
SMILES: CSCC[C@H](NC(=O)c1ccc(CNC(C)(C)CC2CCCCC2)cc1-c1ccccc1C)C(=O)O [Example 308]

- inhibition at 1 µM (at 1 × 10^-6 M): 99%
SMILES: CSCC[C@H](NC(=O)c1ccc(CNC(CC2CCCCC2)C(O)C(O)CC(C)C)cc1-c1ccccc1C)C(=O)O (stereo partly drawn) [Example 528]

- % inhibition of farnesyltransferase (at 1 × 10^-6 M): 71%
SMILES: CSCC[C@H](NC(=O)c1ccc(CN2CCN(c3ccccc3)CC2)cc1-c1ccccc1C)C(=O)O [Example 867]

- % inhibition of farnesyltransferase (at 1 × 10^-7 M): 96%
SMILES: CSCC[C@H](NC(=O)c1ccc(CSC2=NCCS2)cc1-c1ccccc1C)C(=O)O [Example 730]

The remaining lines, values behind:

SMILES: CSCC[C@H](NC(=O)c1ccc(C=CCc2ccc3ccccc3c2)cc1-c1ccccc1C)C(=O)O [Example 496]
- % inhibition of farnesyltransferase (at 1 × 10^-6 M): 93%

SMILES: CSCC[C@H](NC(=O)c1ccc(/C=C/CC(O)c2ccc3ccccc3c2)cc1-c1ccccc1C)C(=O)O (stereo partly drawn) [Example 474]
- % inhibition of farnesyltransferase (at 1 × 10^-6 M): 92%

SMILES: CSCC[C@H](NC(=O)c1ccc(COCc2ccc(-c3ccc(SC)cc3)o2)cc1-c1ccccc1C)C(=O)[O-].[Li+] [Example 447]
- % inhibition of farnesyltransferase (at 1 × 10^-7 M): 91%

SMILES: CSCC[C@H](NC(=O)c1ccc(CN(Cc2ccccc2)c2ccccc2[N+](=O)[O-])cc1-c1ccccc1C)C(=O)O [Example 849, N-[4-(N-benzyl-N-(2-nitrophenyl)aminomethyl)-2-(2-methylphenyl)benzoyl]methionine lithium salt]
- inhibition at 0.1 µM: 66%

SMILES: CSCC[C@H](NC(=O)c1ccc(CNc2ccc3c(c2)CCC3)cc1-c1ccccc1)C(=O)O [Example 705]
- inhibition at 10 µM: 72%

SMILES: CSCC[C@H](NC(=O)c1ccc(CCc2cccc3ccccc23)cc1-c1ccccc1C)C(=O)[O-].[Li+] [Example 467]
- % inhibition of farnesyltransferase (at 1 × 10^-6 M): 97%

SMILES: CSCC[C@H](NC(=O)c1ccc(CNc2ccc(-c3ccccc3)cc2)cc1-c1ccccc1)C(=O)O [Example 700]
- inhibition at 10 µM: 68%

SMILES: CSCC[C@H](NC(=O)c1ccc(COC2(Cc3ccccc3)CCN(C(=O)OC(C)(C)C)CC2)cc1-c1ccccc1C)C(=O)[O-].[Li+] [Example 809]
- % inhibition of farnesyltransferase (at 1 × 10^-6 M): 78%

SMILES: CSCC[C@H](NC(=O)c1ccc(COCc2ccccc2C(C)C)cc1-c1ccccc1C)C(=O)[O-].[Li+] [Example 938]
- % inhibition of farnesyltransferase (at 1 × 10^-8 M): 61%

SMILES: CSCC[C@H](NC(=O)c1ccc(COCc2ccc(-c3ccc(N(C)C)cc3)o2)cc1-c1ccccc1C)C(=O)O [Example 821]
- % inhibition of farnesyltransferase (at 1 × 10^-8 M): 75%

SMILES: CSCC[C@H](NC(=O)c1ccc(NC(=O)CCN)cc1-c1ccccc1)C(=O)O [Example 750]
- inhibition at 10 µM: 44%

SMILES: CSCC[C@H](NC(=O)c1ccc(CNc2ccc(O)cc2)cc1-c1ccccc1)C(=O)O [Example 689]
- inhibition at 10 µM: 73%

SMILES: COc1ccc(-c2ccc(COCc3ccc(C(=O)N[C@@H](CCSC)C(=O)[O-])c(-c4ccccc4C)c3)o2)cc1.[Li+] [Example 446]
- % inhibition of farnesyltransferase (at 1 × 10^-7 M): 91%

SMILES: CSCC[C@H](NC(=O)c1ccc(CCCc2ccc3ccccc3c2)cc1-c1ccccc1C)C(=O)[O-].[Li+] [Example 470]
- % inhibition of farnesyltransferase (at 1 × 10^-6 M): 95%

SMILES: CSCC[C@H](NC(=O)c1ccc(COCc2ccc(C)cc2)cc1-c1ccccc1C)C(=O)[O-].[Li+] [Example 579]
- % inhibition of farnesyltransferase (at 1 × 10^-7 M): 92%

SMILES: CSCC[C@H](NC(=O)c1ccc(NC(=O)OCc2cncs2)cc1-c1ccccc1C)C(=O)O [Example 902, N-[4-N-(thiazol-5-ylmethoxycarbonyl)amino-2-(2-methylphenylbenzoyl]methioninelithium salt]
- inhibition at 1 µM (at 1 × 10^-6 M): 85%

SMILES: CSCC[C@H](NC(=O)c1ccc(C=Cc2ccccc2Cc2ccccc2)cc1-c1ccccc1C)C(=O)[O-].[Li+] [Example 457]
- % inhibition of farnesyltransferase (at 1 × 10^-6 M): 92%

SMILES: CCOC(=O)N1CCC(NCc2ccc(C(=O)N[C@@H](CCSC)C(=O)O)c(-c3ccccc3C)c2)CC1 [Example 806, N-[4-(1-ethoxycarbonylpiperidin-4-ylaminomethyl)-2-(2-methylphenyl)benzoyl]methionine lithium salt]
- inhibition at 1 µM: 72%

SMILES: CSCC[C@H](NC(=O)c1ccc(CNc2nccs2)cc1-c1ccccc1)C(=O)O [Example 374]
- inhibition at 10 µM: 61%

SMILES: CSCC[C@H](NC(=O)c1ccc(CN(c2ccccc2)S(=O)(=O)c2ccc(C)cc2)cc1-c1ccccc1C)C(=O)O [Example 770, N-[4-N-(N-phenyl-N-toluenesulfonylaminomethyl)-2-(2-methylphenyl)benzoyl]methionine lithium salt]
- inhibition at 0.1 µM (at 1 × 10^-7 M): 91%

SMILES: CSCC[C@H](NC(=O)c1ccc(CNc2ccc(N3CCCCC3)cc2)cc1-c1ccccc1)C(=O)O [Example 697]
- inhibition at 1 µM (at 1 × 10^-6 M): 39%
